Assays:
[1] = target: cGMP-dependent 3',5'-cyclic phosphodiesterase (Homo sapiens, UniProt O00408); test: Inhibition of PDE2 (unknown origin)
Phosphodiesterase 4 = Phosphodiesterase 4 (Homo sapiens, UniProt P27815+Q08499+Q07343+Q08493); test: Inhibition of PDE4 (unknown origin); assay type: protein assay
Homo sapiens [2] = species: Homo sapiens; test: Selectivity ratio of IC50 for PDE4 (unknown origin) to IC50 for PDE2 (unknown origin)
in vitro = conditions: human, liver microsomes
Homo sapiens [3] = species: Homo sapiens; test: Selectivity ratio of IC50 for PDE4B (unknown origin) to IC50 for PDE2 (unknown origin)
[4] = target: 3',5'-cyclic-AMP phosphodiesterase 4B (Homo sapiens, UniProt Q07343); test: Inhibition of PDE4B (unknown origin)
Chain of 3',5'-cyclic-AMP phosphodiesterase 4B (Q07343 whole entry): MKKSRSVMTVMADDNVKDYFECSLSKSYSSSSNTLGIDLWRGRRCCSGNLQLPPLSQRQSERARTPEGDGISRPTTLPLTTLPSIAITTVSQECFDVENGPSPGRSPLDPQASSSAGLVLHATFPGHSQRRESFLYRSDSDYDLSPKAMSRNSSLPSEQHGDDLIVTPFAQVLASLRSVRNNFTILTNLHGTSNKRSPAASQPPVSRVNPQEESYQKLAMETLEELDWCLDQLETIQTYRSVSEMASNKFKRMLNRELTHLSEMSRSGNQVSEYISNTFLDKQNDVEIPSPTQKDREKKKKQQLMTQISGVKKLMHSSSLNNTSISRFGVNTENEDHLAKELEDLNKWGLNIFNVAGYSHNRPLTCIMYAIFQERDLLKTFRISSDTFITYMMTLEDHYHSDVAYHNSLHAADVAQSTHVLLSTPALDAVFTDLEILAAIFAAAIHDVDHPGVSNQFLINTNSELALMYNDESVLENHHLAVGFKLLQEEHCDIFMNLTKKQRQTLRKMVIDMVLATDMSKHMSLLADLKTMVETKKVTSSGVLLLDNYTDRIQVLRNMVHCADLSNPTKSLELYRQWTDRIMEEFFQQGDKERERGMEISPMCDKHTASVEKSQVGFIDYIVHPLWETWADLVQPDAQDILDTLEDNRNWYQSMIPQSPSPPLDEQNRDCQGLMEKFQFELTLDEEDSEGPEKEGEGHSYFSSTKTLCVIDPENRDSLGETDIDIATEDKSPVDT

[5] = target: Dual 3',5'-cyclic-AMP and -GMP phosphodiesterase 11A (Homo sapiens) (UniProt Q9HCR9); test: Inhibition of PDE11 (unknown origin)
[6] = target: High affinity cGMP-specific 3',5'-cyclic phosphodiesterase 9A (Homo sapiens) (UniProt O76083); test: Inhibition of PDE9 (unknown origin)
Chain of High affinity cGMP-specific 3',5'-cyclic phosphodiesterase 9A (Homo sapiens) (O76083 whole entry): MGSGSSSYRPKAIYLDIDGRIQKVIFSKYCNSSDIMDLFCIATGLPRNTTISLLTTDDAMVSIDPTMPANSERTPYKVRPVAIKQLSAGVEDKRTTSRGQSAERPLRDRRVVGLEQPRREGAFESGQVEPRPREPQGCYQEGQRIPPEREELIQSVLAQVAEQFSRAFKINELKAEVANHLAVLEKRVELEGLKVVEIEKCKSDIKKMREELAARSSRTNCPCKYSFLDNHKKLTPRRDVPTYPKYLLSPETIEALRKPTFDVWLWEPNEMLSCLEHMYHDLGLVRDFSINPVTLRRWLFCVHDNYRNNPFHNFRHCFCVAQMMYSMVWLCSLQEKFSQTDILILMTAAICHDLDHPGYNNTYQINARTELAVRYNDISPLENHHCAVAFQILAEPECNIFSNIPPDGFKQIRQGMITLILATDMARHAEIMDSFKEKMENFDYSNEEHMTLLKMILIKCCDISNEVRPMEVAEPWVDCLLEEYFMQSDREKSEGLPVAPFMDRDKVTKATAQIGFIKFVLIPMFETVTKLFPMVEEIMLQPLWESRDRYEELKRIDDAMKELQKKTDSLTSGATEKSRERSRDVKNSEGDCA

[7] = target: cAMP and cAMP-inhibited cGMP 3',5'-cyclic phosphodiesterase 10A (Homo sapiens) (UniProt Q9Y233); test: Inhibition of PDE10 (unknown origin)
Chain of cAMP and cAMP-inhibited cGMP 3',5'-cyclic phosphodiesterase 10A (Homo sapiens) (Q9Y233 whole entry): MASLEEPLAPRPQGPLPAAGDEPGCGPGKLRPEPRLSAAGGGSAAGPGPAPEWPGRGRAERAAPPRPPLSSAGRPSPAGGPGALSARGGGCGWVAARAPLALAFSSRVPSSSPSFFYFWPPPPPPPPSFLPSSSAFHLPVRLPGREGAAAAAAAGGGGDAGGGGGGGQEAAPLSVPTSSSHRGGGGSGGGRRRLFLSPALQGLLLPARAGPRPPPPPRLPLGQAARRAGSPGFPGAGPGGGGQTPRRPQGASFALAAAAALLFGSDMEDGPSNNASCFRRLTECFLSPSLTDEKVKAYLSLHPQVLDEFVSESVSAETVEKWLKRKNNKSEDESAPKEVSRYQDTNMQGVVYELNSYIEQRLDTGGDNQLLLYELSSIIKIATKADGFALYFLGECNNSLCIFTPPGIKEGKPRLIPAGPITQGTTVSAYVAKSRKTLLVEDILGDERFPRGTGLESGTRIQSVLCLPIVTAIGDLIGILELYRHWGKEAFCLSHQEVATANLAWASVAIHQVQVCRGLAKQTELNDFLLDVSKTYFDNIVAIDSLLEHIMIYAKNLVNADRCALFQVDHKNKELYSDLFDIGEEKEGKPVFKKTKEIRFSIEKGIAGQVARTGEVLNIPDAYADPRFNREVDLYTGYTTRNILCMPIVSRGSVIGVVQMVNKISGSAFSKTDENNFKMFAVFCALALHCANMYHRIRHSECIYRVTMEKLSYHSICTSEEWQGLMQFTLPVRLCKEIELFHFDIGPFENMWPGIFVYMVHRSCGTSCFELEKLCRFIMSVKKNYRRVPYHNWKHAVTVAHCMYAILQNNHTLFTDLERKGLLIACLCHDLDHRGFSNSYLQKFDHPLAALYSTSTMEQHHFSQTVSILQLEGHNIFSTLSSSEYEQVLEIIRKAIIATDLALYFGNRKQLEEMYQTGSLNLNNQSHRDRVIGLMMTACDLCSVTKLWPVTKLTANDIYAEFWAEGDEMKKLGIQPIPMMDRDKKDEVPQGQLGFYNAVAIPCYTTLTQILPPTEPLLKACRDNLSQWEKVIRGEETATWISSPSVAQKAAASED

[8] = target: Phosphodiesterase 6 (Homo sapiens) (UniProt Q13956+P18545+P35913+O43924+P16499+P51160); test: Inhibition of PDE6 (unknown origin); assay type: protein assay
[9] = target: Phosphodiesterase 7 (Homo sapiens) (UniProt Q13946+Q9NP56); test: Inhibition of PDE7 (unknown origin); assay type: protein assay
[10] = target: Phosphodiesterase 8 (Homo sapiens) (UniProt O95263+O60658); test: Inhibition of PDE8 (unknown origin); assay type: protein assay
Chain of Phosphodiesterase 8 (Homo sapiens) (O60658 whole entry, looked up): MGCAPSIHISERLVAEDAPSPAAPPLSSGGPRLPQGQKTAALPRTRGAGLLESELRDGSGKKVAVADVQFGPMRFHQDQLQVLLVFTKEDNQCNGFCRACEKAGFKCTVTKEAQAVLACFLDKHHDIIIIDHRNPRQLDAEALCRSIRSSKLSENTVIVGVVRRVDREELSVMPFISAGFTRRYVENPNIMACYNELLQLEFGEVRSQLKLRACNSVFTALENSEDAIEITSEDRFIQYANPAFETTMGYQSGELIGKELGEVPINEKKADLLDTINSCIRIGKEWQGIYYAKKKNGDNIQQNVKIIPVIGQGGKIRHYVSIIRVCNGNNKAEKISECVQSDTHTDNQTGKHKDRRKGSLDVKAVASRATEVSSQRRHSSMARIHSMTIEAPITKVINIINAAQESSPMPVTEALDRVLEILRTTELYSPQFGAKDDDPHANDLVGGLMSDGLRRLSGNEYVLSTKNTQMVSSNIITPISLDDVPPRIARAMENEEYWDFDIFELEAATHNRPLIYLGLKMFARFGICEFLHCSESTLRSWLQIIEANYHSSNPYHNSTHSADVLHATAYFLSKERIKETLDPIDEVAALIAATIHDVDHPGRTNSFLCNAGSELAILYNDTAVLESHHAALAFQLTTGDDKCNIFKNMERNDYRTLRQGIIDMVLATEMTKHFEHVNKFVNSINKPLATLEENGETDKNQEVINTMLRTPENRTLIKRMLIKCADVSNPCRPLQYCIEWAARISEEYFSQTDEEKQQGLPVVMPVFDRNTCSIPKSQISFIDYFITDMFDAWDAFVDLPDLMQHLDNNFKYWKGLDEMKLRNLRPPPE
Chain of Phosphodiesterase 8 (Homo sapiens) (O95263 whole entry, looked up): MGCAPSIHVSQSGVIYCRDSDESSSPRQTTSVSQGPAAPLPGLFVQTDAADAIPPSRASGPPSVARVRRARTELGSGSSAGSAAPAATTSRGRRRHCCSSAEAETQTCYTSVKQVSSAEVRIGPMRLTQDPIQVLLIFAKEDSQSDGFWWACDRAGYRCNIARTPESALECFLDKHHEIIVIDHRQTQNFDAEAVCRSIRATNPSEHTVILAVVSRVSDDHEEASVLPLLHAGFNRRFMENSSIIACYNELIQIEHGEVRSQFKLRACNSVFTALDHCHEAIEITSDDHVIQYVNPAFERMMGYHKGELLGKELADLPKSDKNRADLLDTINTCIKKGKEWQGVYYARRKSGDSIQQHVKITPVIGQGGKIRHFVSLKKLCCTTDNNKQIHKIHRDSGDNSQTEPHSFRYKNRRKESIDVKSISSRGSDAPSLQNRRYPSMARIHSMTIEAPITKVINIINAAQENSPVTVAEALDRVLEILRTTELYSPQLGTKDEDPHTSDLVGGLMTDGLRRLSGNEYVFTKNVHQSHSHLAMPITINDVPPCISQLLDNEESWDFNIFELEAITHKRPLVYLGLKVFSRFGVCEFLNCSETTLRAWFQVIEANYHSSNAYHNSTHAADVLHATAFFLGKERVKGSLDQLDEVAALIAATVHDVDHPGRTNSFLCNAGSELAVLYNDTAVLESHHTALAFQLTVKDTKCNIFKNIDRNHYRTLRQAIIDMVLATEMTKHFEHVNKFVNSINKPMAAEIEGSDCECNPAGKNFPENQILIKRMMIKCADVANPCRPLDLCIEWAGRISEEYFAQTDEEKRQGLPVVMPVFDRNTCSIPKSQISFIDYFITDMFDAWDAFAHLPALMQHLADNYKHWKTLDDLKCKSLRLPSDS

[11] = target: cGMP-specific 3',5'-cyclic phosphodiesterase (Homo sapiens) (UniProt O76074); test: Inhibition of PDE5 (unknown origin)
[12] = target: Phosphodiesterase 3 (Homo sapiens) (UniProt Q14432+Q13370); test: Inhibition of PDE3 (unknown origin); assay type: protein assay
[13] = target: Phosphodiesterase 1 (Homo sapiens) (UniProt P54750+Q01064+Q14123); test: Inhibition of PDE1 (unknown origin); assay type: protein assay
[14] = Bioavailability in rat; assay type: ADME, organism-based; conditions: in vivo
[15] = Half life in po dosed rat; assay type: ADME, organism-based; conditions: in vivo
[16] = Half life in iv dosed rat; assay type: ADME, organism-based; conditions: in vivo

Chain of cGMP-dependent 3',5'-cyclic phosphodiesterase (O00408 whole entry): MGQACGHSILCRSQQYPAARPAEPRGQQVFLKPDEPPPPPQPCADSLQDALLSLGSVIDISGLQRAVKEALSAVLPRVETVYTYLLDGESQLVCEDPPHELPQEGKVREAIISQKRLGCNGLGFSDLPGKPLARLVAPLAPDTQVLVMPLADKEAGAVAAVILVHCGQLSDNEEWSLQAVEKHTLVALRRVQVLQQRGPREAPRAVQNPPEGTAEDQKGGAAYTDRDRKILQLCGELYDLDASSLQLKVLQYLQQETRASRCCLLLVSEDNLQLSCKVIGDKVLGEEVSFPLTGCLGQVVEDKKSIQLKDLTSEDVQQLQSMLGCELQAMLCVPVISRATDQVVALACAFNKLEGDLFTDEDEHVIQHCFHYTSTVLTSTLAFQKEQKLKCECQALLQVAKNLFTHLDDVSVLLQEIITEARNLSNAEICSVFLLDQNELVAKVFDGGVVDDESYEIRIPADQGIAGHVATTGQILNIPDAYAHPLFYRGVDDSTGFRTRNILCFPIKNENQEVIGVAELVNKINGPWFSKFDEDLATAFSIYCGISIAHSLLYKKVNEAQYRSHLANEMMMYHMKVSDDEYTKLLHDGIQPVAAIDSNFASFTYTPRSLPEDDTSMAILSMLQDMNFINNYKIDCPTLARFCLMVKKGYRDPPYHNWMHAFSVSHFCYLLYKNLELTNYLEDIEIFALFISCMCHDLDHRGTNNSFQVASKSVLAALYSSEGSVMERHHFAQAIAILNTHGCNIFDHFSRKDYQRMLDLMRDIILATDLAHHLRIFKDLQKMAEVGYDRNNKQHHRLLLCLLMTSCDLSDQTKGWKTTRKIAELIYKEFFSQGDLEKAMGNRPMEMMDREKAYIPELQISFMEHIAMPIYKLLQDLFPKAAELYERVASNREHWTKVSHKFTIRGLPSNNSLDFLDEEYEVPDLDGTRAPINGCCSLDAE

SMILES	IC50 [1] [nM]	IC50 (Phosphodiesterase 4) [nM]	Ratio IC50 (Homo sapiens [2])	half-life (in vitro) [min]	Ratio IC50 (Homo sapiens [3])	IC50 [4] [nM]	also measured
CCC(CC)c1nn(CCO)c2c1N=C(c1ccccc1)CNC2=O	102	76	0.7	20			
CCC(CC)c1nn(CCO)c2c1N=C(c1ccc(OC)c(OC)c1)CNC2=O	23	48	2	23			
CCC(C)(C)c1nn(CCO)c2c1N=C(c1ccc(-n3ccnc3C)cc1)CNC2=O	45			7	8	378	
CCCCCC[C@@H]([C@@H](C)O)n1cnc2c(N)ncnc21 (relative stereo) [EHNA]	800						
CCC(CC)c1nn(CCO)c2c1N=C(c1ccc(-n3ccnc3C)cc1)CNC2=O	54	538	11	5	11	583	
CCC(CC)c1nn(CCCO)c2c1N=C(c1ccc(OC)c(OC)c1)CNC2=O	93	365	4	44			
CCC(CC)c1nn(CCCO)c2c1N=C(c1ccccc1)CNC2=O				36			
CCC(CC)c1nn(CC)c2c1N=C(c1ccc(C(=O)O)cc1)CNC2=O	840	1.2	0.0015				INH [5]: > 5 µM; INH [6]: > 5 µM; INH [7]: > 5 µM; INH [8]: > 5 µM; INH [9]: > 5 µM; INH [10]: > 5 µM; INH [11]: > 5 µM; INH [12]: > 5 µM; INH [13]: > 5 µM; bioavailability [14]: 80%; half-life [15]: 5 h; half-life [16]: 1.9 h
CC(C)c1nccn1-c1ccc(C2=Nc3c(C(C)(C)C)nn(CCO)c3C(=O)NC2)cc1	97			12	3	330	
CCC(CC)c1nn(CCCO)c2c1N=C(c1ccc(-n3ccnc3C)cc1)CNC2=O	328	10800	33	6			
CC(C)(C)c1nn(CCO)c2c1N=C(c1ccc(F)cc1)CNC2=O	259	31	0.12				
CCC(C)(C)c1nn(CCO)c2c1N=C(c1ccc(-n3cc(C)nc3C)cc1)CNC2=O	105			9	19	1950	
COc1ccc(Cc2nn3c([C@@H](CCc4ccccc4)[C@@H](C)O)nc(C)c3c(=O)[nH]2)cc1OO	4.7						
